Patent publication US12297294B2, “Cortistatin analogues for the treatment of inflammatory and/or immune diseases” (BCN PEPTIDES, S.A., priority 2013, dated 2025)
Where a SMILES comes first, the peptide text is derived from it. Bridges are numbered along the chain shown (N, C = ends). [ ]: non-standard residue; d: D form. The star is where a group is joined. Phe(2,4,6-Me3) = Cc1cc(C)c(C[C@H](N)C(=O)O)c(C)c1; Phe(3,5-F2) = N[C@@H](Cc1cc(F)cc(F)c1)C(=O)O; Myristoyl = CCCCCCCCCCCCCC(=O)*; Octanoyl = CCCCCCCC(=O)*

How the values were obtained:
[1] = Serum stability in 90% human serum at 37° C., RP-HPLC; type: in vitro ADME; conditions: for main metabolite in serum: loss of C-terminal Lys
Protocol: The new compounds were incubated with 90% human serum at 37° C. Aliquots were extracted at different incubation times. Methanol was added to precipitate the proteins from the serum, it was centrifuged and the supernatant was subject to a chromatographic analysis using RP-HPLC (Gradient: 20-80% B in 30 min, B=0.07% TFA in acetonitrile). The disappearance of the initial product was analyzed using the area corresponding to the initial product and half-life time was calculated.

T cells (splenocytes) = test: Immune response in vitro: anti-CD3 stimulated splenocyte T cells, proliferation and cytokines; type: cell-based, C57B1I/6 mice; conditions: anti-CD3 2 μg/ml, peptide 100 nM; for INFγ level in supernatant / IL-2 level in supernatant: 48 hours; for INFγ level in supernatant: activated 2.52, basal 0; for IL-2 level in supernatant: activated 3.22, basal 0.23; for proliferation ([3H]-thymidine incorporation): 72 hours, activated 9843, basal 640
Protocol: Splenocytes from 8 week old male C57B1I/6 mice were obtained after mechanical dissociation of cells, filtration through a nylon mesh and lysis of red blood cells. The splenocytes were incubated in complete DMEM medium until a density of 10^6 cells/ml. The non-adherent cells (formed in 80% by T cells) were used for measuring cytokines and for proliferation assays. The T cells were cultured in complete DMEM medium and stimulated with anti-CD3 antibodies (2 μg/ml) in the presence of different cortistatin analogues at a concentration of 100 nM. After 48 hours, the supernatants of the culture were isolated and the levels of cytokines (IFNγ and IL-2) were determined by using an ELISA test. In order to determine the effect of the different cortistatin analogues in proliferation, the cells were cultured for 72 hours and 0.5 μCi (0.0185 MBq)/well of [^3H]— thymidine was added for the last 8 hours of culture, the membranes were collected and the added [^3H]-Thymidine was measured using a scintillation counter.
For comparison, the values of cortistatin-14 (CST-14), somatostatin-14 (SOM-14) and three somatostatin analogues described in WO 2010/128098 A1 were determined: […]

Raw 264 cells = test: Inflammatory response in vitro: LPS-stimulated Raw 264 cells, cytokines (ELISA) and NO (Griess); type: cell-based; conditions: LPS 1 μg/ml, peptide 100 nM, 24 hours; for NO (nitric oxide) level in supernatant: Griess test, basal 0.44; for IL-6 level in supernatant: basal 0; for TNFalpha level in supernatant: basal 0.48
Protocol: Raw 264 cells were cultured in complete DMEM medium until a confluence of 80% was reached. The cells were incubated either in the absence or presence of lipopolysaccharide (LPS, 1 μg/ml, from E. coli serotype 055:B5). The cells incubated in the absence of lipopolysaccharide were used as a reference (basal). The new cortistatin analogues were added at 100 nM concentration at the start of the culture. After 24 hours, the supernatants were collected and cytokine and nitric oxide levels were measured. The cytokine level (TNFalpha and IL-6) was established using a ELISA test. The quantity of nitric oxide (NO) was established using the Griess test. Equal volumes of supernatants from the culture (90 μl) and Griess reagents were mixed and absorbance was measured at 550 nm. The nitrite amount was calculated in relation to a standard NaNO2 curve.
For comparison, the values of cortistatin-14 (CST-14), somatostatin-14 (SOM-14) and three somatostatin analogues described in WO 2010/128098 A1 were evaluated: […]

[2] = biological target: T1, somatostatin receptor sstr1 (UniProt P30872 1-391, limits assumed); test: radioligand competition vs 125I-Tyr11-somatostatin 14, CHO-K1 cells expressing sstr1, 0.1 nM to 10 uM
T1 construct: whole, on cells
Protocol: (§1) CHO-K1 cells in which each of the 5 somatostatin receptors (sstr1-sstr5) were expressed independently were used. […] The radioactivity obtained in the absence of somatostatin-14 was considered as the total binding and that obtained in the presence of 1 μM of somatostatin-14 was considered as the non-specific bond. The specific binding was considered as the difference between the complete binding and the non-specific binding.

[3] = biological target: T2, somatostatin receptor sstr3 (UniProt P32745 1-418, limits assumed); test: radioligand competition vs 125I-Tyr11-somatostatin 14, CHO-K1 cells expressing sstr3, 0.1 nM to 10 uM
T2 construct: whole, on cells
Protocol: as §1

[4] = biological target: T3, somatostatin receptor sstr5 (UniProt P35346 1-364, limits assumed); test: radioligand competition vs 125I-Tyr11-somatostatin 14, CHO-K1 cells expressing sstr5, 0.1 nM to 10 uM
T3 construct: whole, on cells
Protocol: as §1

[5] = biological target: T4, somatostatin receptor sstr2 (UniProt P30874 1-369, limits assumed); test: radioligand competition vs 125I-Tyr11-somatostatin 14, CHO-K1 cells expressing sstr2, 0.1 nM to 10 uM
T4 construct: whole, on cells
Protocol: as §1

T4 sequence (P30874 whole entry): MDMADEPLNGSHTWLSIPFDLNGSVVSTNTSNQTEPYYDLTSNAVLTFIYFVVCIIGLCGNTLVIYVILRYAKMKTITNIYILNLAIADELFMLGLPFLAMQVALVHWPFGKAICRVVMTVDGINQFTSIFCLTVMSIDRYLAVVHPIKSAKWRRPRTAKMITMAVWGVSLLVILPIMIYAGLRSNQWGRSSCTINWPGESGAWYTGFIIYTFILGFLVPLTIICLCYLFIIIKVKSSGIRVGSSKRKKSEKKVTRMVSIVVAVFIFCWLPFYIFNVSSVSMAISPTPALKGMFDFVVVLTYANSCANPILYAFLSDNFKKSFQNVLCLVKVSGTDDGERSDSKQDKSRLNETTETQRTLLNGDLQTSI
T1 sequence (P30872 whole entry): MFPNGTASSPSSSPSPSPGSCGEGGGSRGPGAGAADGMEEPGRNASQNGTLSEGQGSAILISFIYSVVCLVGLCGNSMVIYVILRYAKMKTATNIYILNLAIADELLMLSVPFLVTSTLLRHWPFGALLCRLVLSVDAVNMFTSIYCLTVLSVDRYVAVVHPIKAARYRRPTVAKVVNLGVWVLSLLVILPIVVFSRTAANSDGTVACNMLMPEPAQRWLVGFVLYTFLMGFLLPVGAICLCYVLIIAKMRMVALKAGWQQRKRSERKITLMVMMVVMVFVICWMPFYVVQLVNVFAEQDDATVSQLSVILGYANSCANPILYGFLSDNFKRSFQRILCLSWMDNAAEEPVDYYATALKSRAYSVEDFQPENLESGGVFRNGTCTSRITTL
T2 sequence (P32745 whole entry): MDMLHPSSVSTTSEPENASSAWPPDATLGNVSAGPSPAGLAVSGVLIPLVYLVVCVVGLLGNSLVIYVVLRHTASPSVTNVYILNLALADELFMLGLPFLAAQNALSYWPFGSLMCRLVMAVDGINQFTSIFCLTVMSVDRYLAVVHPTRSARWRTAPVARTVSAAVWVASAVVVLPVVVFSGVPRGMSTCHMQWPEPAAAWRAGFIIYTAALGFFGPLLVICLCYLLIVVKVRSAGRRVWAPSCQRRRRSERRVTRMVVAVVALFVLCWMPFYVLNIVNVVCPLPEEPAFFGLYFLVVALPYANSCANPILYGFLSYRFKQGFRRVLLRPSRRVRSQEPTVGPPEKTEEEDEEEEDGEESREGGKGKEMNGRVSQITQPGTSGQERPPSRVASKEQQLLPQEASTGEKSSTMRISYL
T3 sequence (P35346 whole entry): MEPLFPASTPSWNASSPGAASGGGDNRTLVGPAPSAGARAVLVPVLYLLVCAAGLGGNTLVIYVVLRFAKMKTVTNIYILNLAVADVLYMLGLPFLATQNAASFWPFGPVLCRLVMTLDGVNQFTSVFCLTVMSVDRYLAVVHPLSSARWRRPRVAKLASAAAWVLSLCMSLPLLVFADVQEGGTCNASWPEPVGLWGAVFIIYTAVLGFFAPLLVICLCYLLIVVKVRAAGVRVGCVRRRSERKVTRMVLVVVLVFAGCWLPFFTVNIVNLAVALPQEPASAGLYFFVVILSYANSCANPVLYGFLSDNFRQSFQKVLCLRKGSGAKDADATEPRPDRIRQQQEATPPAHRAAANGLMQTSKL

| Molecule | half-life [1] [min] | percentage of inhibition of specific binding [2] [%] | percentage of inhibition of specific binding [3] [%] | percentage of inhibition of specific binding [4] [%] | percentage of inhibition of specific binding [5] [%] | other results |
| --- | --- | --- | --- | --- | --- | --- |
| C[C@@H](O)[C@@H]1NC(=O)[C@H](CCCCN)NC(=O)[C@H](Cc2c[nH]c3ccccc23)NC(=O)[C@H](Cc2ccccc2)NC(=O)[C@H](Cc2ccccc2)NC(=O)[C@H](CC(N)=O)NC(=O)[C@H](CCCCN)NC(=O)[C@@H](NC(=O)[C@@H]2CCCN2)CSSC[C@@H](C(=O)N[C@@H](CCCCN)C(=O)O)NC(=O)[C@H](CO)NC(=O)[C@H](CO)NC(=O)[C@H](Cc2ccccc2)NC1=O [CST-14] (H-PCKNFFWKTFSSCK-OH; disulfide 2-13) |  |  |  |  |  | main metabolite in serum [1]: compound 14; INFγ level in supernatant (T cells (splenocytes)): 1.13 ng/mL; IL-2 level in supernatant (T cells (splenocytes)): 1.52 ng/mL; proliferation ([3H]-thymidine incorporation) (T cells (splenocytes)): 5500; NO (nitric oxide) level in supernatant (Raw 264 cells): 3.08 ng/mL; IL-6 level in supernatant (Raw 264 cells): 3.78 ng/mL; TNFalpha level in supernatant (Raw 264 cells): 3.17 ng/mL |
| C[C@H](N)C(=O)NCC(=O)N[C@H]1CSSC[C@@H](C(=O)O)NC(=O)[C@H](CO)NC(=O)[C@H]([C@@H](C)O)NC(=O)[C@H](Cc2ccccc2)NC(=O)[C@H]([C@@H](C)O)NC(=O)[C@H](CCCCN)NC(=O)[C@@H](Cc2c[nH]c3ccccc23)NC(=O)[C@H](Cc2cc(F)cc(F)c2)NC(=O)[C@H](Cc2ccccc2)NC(=O)[C@H](CC(N)=O)NC(=O)[C@H](CCCCN)NC1=O [Compound 6, H-L-Ala-Gly-c[L-Cys-L-Lys-L-Asn-L-Phe-L-Dfp-D-Trp-L-Lys-L-Thr-L-Phe-L-Thr-L-Ser-L-Cys]-OH] | 228 |  |  |  |  |  |
| H2N-AGc[CKNFFWKTFTSC]-OH (AGCKNFFWKTFTSC; disulfide cyclised; Somatostatin-14; DISULFID (3)..(14)) [SST-14, endogenous peptide somatostatin-14] |  |  |  |  |  | INFγ level in supernatant (T cells (splenocytes)): 2.31 ng/mL; IL-2 level in supernatant (T cells (splenocytes)): 3.14 ng/mL; proliferation ([3H]-thymidine incorporation) (T cells (splenocytes)): 9936; NO (nitric oxide) level in supernatant (Raw 264 cells): 4.32 ng/mL; IL-6 level in supernatant (Raw 264 cells): 4.2 ng/mL; TNFalpha level in supernatant (Raw 264 cells): 5.21 ng/mL |
| CCCCCCCC(=O)N1CCC[C@H]1C(=O)N[C@H]1CSSC[C@@H](C(=O)O)NC(=O)[C@H](CO)NC(=O)[C@H]([C@@H](C)O)NC(=O)[C@H](Cc2ccccc2)NC(=O)[C@H]([C@@H](C)O)NC(=O)[C@H](CCCCN)NC(=O)[C@@H](Cc2c[nH]c3ccccc23)NC(=O)[C@H](Cc2ccccc2)NC(=O)[C@H](Cc2c(C)cc(C)cc2C)NC(=O)[C@H](CC(N)=O)NC(=O)[C@H](CCCCN)NC1=O [Compound 5, Octanoyl-L-Pro-c[L-Cys-L-Lys-L-Asn-L-Msa-L-Phe-D-Trp-L-Lys-L-Thr-L-Phe-L-Thr-L-Ser-L-Cys]-OH] | 2100 |  |  |  |  |  |
| CCCCCCCC(=O)N1CCC[C@H]1C(=O)N[C@H]1CSSC[C@@H](C(=O)N[C@@H](CCCCN)C(=O)O)NC(=O)[C@H](CO)NC(=O)[C@H]([C@@H](C)O)NC(=O)[C@H](Cc2ccccc2)NC(=O)[C@H]([C@@H](C)O)NC(=O)[C@H](CCCCN)NC(=O)[C@@H](Cc2c[nH]c3ccccc23)NC(=O)[C@H](Cc2ccccc2)NC(=O)[C@H](Cc2c(C)cc(C)cc2C)NC(=O)[C@H](CC(N)=O)NC(=O)[C@H](CCCCN)NC1=O [Compound 4, Octanoyl-L-Pro-c[L-Cys-L-Lys-L-Asn-L-Msa-L-Phe-D-Trp-L-Lys-L-Thr-L-Phe-L-Thr-L-Ser-L-Cys-]-L-Lys-OH] | 21 |  |  |  |  | main metabolite in serum [1]: compound 5 |
| H-DRMPCRN[Phe(2,4,6-Me3)]FWKTFTSCK-OH (disulfide 5-16; SMILES CSCC[C@H](NC(=O)[C@H](CCCNC(=N)N)NC(=O)[C@@H](N)CC(=O)O)C(=O)N1CCC[C@H]1C(=O)N[C@H]1CSSC[C@@H](C(=O)N[C@@H](CCCCN)C(=O)O)NC(=O)[C@H](CO)NC(=O)[C@H]([C@@H](C)O)NC(=O)[C@H](Cc2ccccc2)NC(=O)[C@H]([C@@H](C)O)NC(=O)[C@H](CCCCN)NC(=O)[C@H](Cc2c[nH]c3ccccc23)NC(=O)[C@H](Cc2ccccc2)NC(=O)[C@H](Cc2c(C)cc(C)cc2C)NC(=O)[C@H](CC(N)=O)NC(=O)[C@H](CCCNC(=N)N)NC1=O) |  | > 50 | > 50 | > 50 | > 50 |  |
| H-PCKN[Phe(3,5-F2)]FWKT[Phe(2,4,6-Me3)]SSCK-NH2 (disulfide 2-13) |  | > 50 | > 50 | > 50 | > 50 |  |
| Myristoyl-DRMPCRN[Phe(2,4,6-Me3)]FWKTFTSCK-OH (disulfide 5-16; SMILES CCCCCCCCCCCCCC(=O)N[C@@H](CC(=O)O)C(=O)N[C@@H](CCCNC(=N)N)C(=O)N[C@@H](CCSC)C(=O)N1CCC[C@H]1C(=O)N[C@H]1CSSC[C@@H](C(=O)N[C@@H](CCCCN)C(=O)O)NC(=O)[C@H](CO)NC(=O)[C@H]([C@@H](C)O)NC(=O)[C@H](Cc2ccccc2)NC(=O)[C@H]([C@@H](C)O)NC(=O)[C@H](CCCCN)NC(=O)[C@H](Cc2c[nH]c3ccccc23)NC(=O)[C@H](Cc2ccccc2)NC(=O)[C@H](Cc2c(C)cc(C)cc2C)NC(=O)[C@H](CC(N)=O)NC(=O)[C@H](CCCNC(=N)N)NC1=O) |  | > 50 | > 50 | > 50 | > 50 |  |
| Octanoyl-PCKN[Phe(2,4,6-Me3)]F[dW]KTFTSC-OH (disulfide 2-13; SMILES CCCCCCCC(=O)N1CCC[C@H]1C(=O)N[C@H]1CSSC[C@@H](C(=O)O)NC(=O)[C@H](CO)NC(=O)[C@H]([C@@H](C)O)NC(=O)[C@H](Cc2ccccc2)NC(=O)[C@H]([C@@H](C)O)NC(=O)[C@H](CCCCN)NC(=O)[C@@H](Cc2c[nH]c3ccccc23)NC(=O)[C@H](Cc2ccccc2)NC(=O)[C@H](Cc2c(C)cc(C)cc2C)NC(=O)[C@H](CC(N)=O)NC(=O)[C@H](CCCCN)NC1=O) |  | > 50 | > 50 | > 50 | > 50 |  |
